“And” between values parts separate entries of the source, which are not always exact repeats. Equal values may be shown once.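 Each compound was tested at five concentrations against cells in 96-well plates for 48 hours. At the GI50, growth is halved. TGI marks complete inhibition of growth.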
Legend:
Experiment in all cases: DTP human tumour cell line panel, 48 h
HCC-2998 colon = system: HCC-2998 colon
K-562 leukemia = system: K-562 leukemia
LOX IMVI melanoma = system: LOX IMVI melanoma
NCI-H23 lung = system: NCI-H23 lung
OVCAR-3 ovarian = system: OVCAR-3 ovarian
OVCAR-4 ovarian = system: OVCAR-4 ovarian
SNB-75 CNS = system: SNB-75 CNS
T-47D breast = system: T-47D breast
TK-10 renal = system: TK-10 renal
U251 CNS = system: U251 CNS

| Compound | GI50 (HCC-2998 colon) [µM] | TGI (HCC-2998 colon) [µM] | GI50 (K-562 leukemia) | TGI (K-562 leukemia) [µM] | GI50 (LOX IMVI melanoma) [µM] | TGI (LOX IMVI melanoma) [µM] | GI50 (NCI-H23 lung) [µM] | TGI (NCI-H23 lung) [µM] | GI50 (OVCAR-3 ovarian) | TGI (OVCAR-3 ovarian) | GI50 (OVCAR-4 ovarian) [µM] | TGI (OVCAR-4 ovarian) [µM] | GI50 (SNB-75 CNS) | TGI (SNB-75 CNS) | GI50 (T-47D breast) | TGI (T-47D breast) [µM] | GI50 (TK-10 renal) [µM] | TGI (TK-10 renal) [µM] | GI50 (U251 CNS) | TGI (U251 CNS) [µM] |
| --- | --- | --- | --- | --- | --- | --- | --- | --- | --- | --- | --- | --- | --- | --- | --- | --- | --- | --- | --- | --- |
| Clc1ccc(-c2cnc3c(-c4ccnc(N5CCNCC5)c4)cnn3c2)cc1 | 2.02 | 3.51 | 1.84 µM | 3.74 | 1.91 | 3.48 | 1.99 | 3.66 | 1.96 µM | 3.42 µM | 1.61 | 3.09 | 1.56 µM | 2.91 µM | 1.82 µM | 3.8 | 1.99 | 3.43 | 1.89 µM | 3.51 |
| COc1cc2c(/C=C3\C(=O)N(C)c4ccccc43)c[nH]c2cc1C | 1.79 | > 68.3 | 1.68 µM | > 100 | 0.869 | > 47.9 | 5.33 | > 67.9 | 3.27 µM | 9.78 µM | > 100 | > 100 | 4.34 µM | > 100 µM | > 39.3 µM | > 100 | 10.5 | 70.5 | 0.499 µM | 29.6 |
| CN1CCN(C)C1c1ccc(C2N(C)CCN2C)cc1 | 40.5 | > 100 | 38.5 µM | > 100 | 31.3 | > 100 | 45.7 | > 100 | 41.8 µM | > 100 µM | 38.3 | > 100 | > 100 µM | > 100 µM | 20.4 µM | > 100 | > 100 | > 100 | 39.7 µM | > 100 |
| O=C(Nc1ccc(Cl)c(C(F)(F)F)c1)Nc1ccc(-c2cccnc2)cc1N1CCC(CO)CC1 | 2.31 | 4.9 | 3.3 µM | > 100 | 1.92 | 3.66 | 2.78 | 9.55 | 1.84 µM | 4.3 µM | 2.97 | > 100 | 2.1 µM | 8.03 µM | 2.09 µM | 7.76 | 1.85 | 4.76 | 2.41 µM | 7.1 |
| Nc1nc(Sc2ccc([N+](=O)[O-])c3nonc23)c2ncn(C3OC(CO)C(O)C3O)c2n1 (centres undefined) | 0.777 | 3.49 | 0.279 µM | > 90.5 | 0.221 | 2.76 | 1.34 | 13.9 | 2.17 µM | 24.6 µM | 1.89 | 17.8 | 0.886 µM | > 100 µM | 1.07 µM | > 49.5 | 2.42 | > 37.2 | 0.685 µM | > 85.1 |
| Cc1ccc(-c2cc(C(=O)Nc3ccc(S(=O)(=O)N4CCCCC4)cc3)[nH]n2)c(O)c1 | > 100 | > 100 | 74.1 µM | > 100 | > 100 | > 100 | > 100 | > 100 | > 100 µM | > 100 µM | > 100 | > 100 | > 100 µM | > 100 µM | > 100 µM | > 100 | > 100 | > 100 | > 100 µM | > 100 |
| COc1cc(-n2cc(-c3ccc(Cl)cc3)n(-c3ccccc3)c2=O)cc(OC)c1OC | 22.9 | > 100 | 13.6 µM | > 100 | 24.3 | > 100 | 35.1 | > 100 | 16.3 µM | > 86.2 µM | 17.9 | > 100 | 20.9 µM | > 100 µM | 8.01 µM | 74 | 35.5 | > 100 | 23.5 µM | > 100 |
| COc1cc(OC)c(C(=O)/C=C/c2ccc(C#N)cc2)c(OC)c1 | 1.9 | 6.51 | 1.54 µM | > 50 | 1.37 | 5.47 | 1.57 | 11.6 | 1.77 µM | 7.93 µM | 1.63 | > 50 | 1.27 µM | 6.62 µM | 1.21 µM | 7.81 | 1.71 | 24 | 1.81 µM | 7.05 |
| COc1cc2c3c(n(CCCN=[N+]=[N-])c(=O)c2cc1OC)-c1ccccc1C3=O | 94.2 | > 100 | 3.48 µM | > 100 | 1.33 | 9.14 | 3.23 | 21.8 | 4.58 µM | 24.5 µM | 22.6 | > 100 | 2.53 µM | 8.49 µM | > 100 µM | > 100 | 13.8 | 75.5 | 1.61 µM | 24.5 |
| CC(=O)OCC1OC(SC2=N/C(=C\c3ccc(Br)s3)C(=O)N2c2ccccc2)C(OC(C)=O)C(OC(C)=O)C1OC(C)=O (centres undefined) | – | > 100 | > 100 µM and 18.9 µM | > 100 | – | > 100 | – | > 100 | 91.1 µM and 20.7 µM | > 100 µM and 85.2 µM | – | > 100 | 25.1 µM and > 100 µM | 61.4 µM and > 100 µM | 96.5 µM and 27.8 µM | > 100 | – | > 100 | 28 µM and 63.1 µM | > 100 |
| ClCc1ccccc1Cn1cnc2nc(Cl)nc(Cl)c21 | 3.96 | 8.56 | 0.239 µM | 2.95 | 0.137 | 0.301 | 2.21 | 7.14 | 5.29 µM | 12.3 µM | 1.76 | 4.46 | 1.6 µM | 3.43 µM | 0.59 µM | 5.24 | 13.5 | 29.8 | 0.414 µM | 1.47 |
| COc1cc2c(cc1OC)[C@@H]1C(=O)c3ccc4c(c3O[C@@H]1CO2)C[C@H](C(C)C)O4 | 4.09 | > 61.6 | 0.521 µM | > 41.4 | 0.264 | – | 0.0416 | > 38 | 7.81 µM | > 41.1 µM | 0.795 | > 100 | 4.39 µM | 23.8 µM | 0.175 µM | > 60.6 | 5.37 | > 49 | 4.57 µM | > 38.2 |

Reference: PubChem BioAssay (NCI)
